The values below come from the supplement of paper PMC10307832.

Holding throughout (assay): relative viability (nuclei count vs DMSO), 5 days (fraction); higher = more cells survive
Compound in the assay “AZD6482 + Lapatinib”: Cc1cc([C@@H](C)Nc2ccccc2C(=O)O)c2nc(N3CCOCC3)cc(=O)n2c1 [AZD6482] + CS(=O)(=O)CCNCc1ccc(-c2ccc3ncnc(Nc4ccc(OCc5cccc(F)c5)c(Cl)c4)c3c2)o1 [Lapatinib] (partner 2 µM)
A digest of the protocol: (§1)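 Lung cancer cell lines in 1536-well plates were dosed by pin tool the day after seeding, either with one drug alone or with a fixed anchor-drug dose plus five library-drug doses (not always all listed) in √10 steps. After 5 days, cells were fixed and their nuclei stained in one step (final 0.05% Triton X-100, 1% formaldehyde, 1 ug/ml Hoechst), then counted on 4× images. Relative viability is the nuclei count in treated wells divided by that in vehicle wells. Values are medians of duplicate plates.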

Compound in assay [1]: COc1cc2nc(N3CCCN(C)CC3)nc(NC3CCN(Cc4ccccc4)CC3)c2cc1OC + C[C@]1(O)C[C@@H](c2nc(-c3ccc4ccc(-c5ccccc5)nc4c3)c3c(N)nccn32)C1 [Linsitinib] (partner 1 µM)
A digest of the protocol: as §1

Compound in assay [2]: COc1cc2nc(N3CCCN(C)CC3)nc(NC3CCN(Cc4ccccc4)CC3)c2cc1OC + Nc1nc2[nH]cc(CCc3ccc(C(=O)N[C@@H](CCC(=O)O)C(=O)O)cc3)c2c(=O)[nH]1 [Pemetrexed] (partner 0.2 µM)
The essentials:
as §1

Compound in assay [3]: COc1cc2nc(N3CCCN(C)CC3)nc(NC3CCN(Cc4ccccc4)CC3)c2cc1OC + Cc1nc(Nc2ncc(C(=O)Nc3c(C)cccc3Cl)s2)cc(N2CCN(CCO)CC2)n1 [Dasatinib] (partner 0.075 µM)
A digest of the protocol: as §1

Consider NCI-H2347, for which the relative viability is 0.946 with AZD6482 + Lapatinib (first compound 0.253 µM); 0.988 with AZD6482 + Lapatinib (first compound 0.8 µM); 0.653 in the assay with AZD6482 + Lapatinib (first compound 2.53 µM); 0.763 in the assay with AZD6482 + Lapatinib (first compound 8 µM); 0.936 in assay [1] (first compound 0.2 µM); 0.927 in assay [1] (first compound 0.6325 µM). Further, the relative viability in assay [1] (first compound 2 µM) worked out at 0.882; in assay [1] (first compound 6.325 µM), 0.922; in assay [2] (first compound 0.2 µM) it was 0.394; in assay [2] (first compound 0.6325 µM) it was 0.4; in assay [2] (first compound 2 µM) it was 0.494; in assay [2] (first compound 6.325 µM) it was 0.538. The relative viability in assay [3] (first compound 0.2 µM) came to 0.36; in assay [3] (first compound 0.6325 µM) it was 0.339; in assay [3] (first compound 2 µM) it was 0.304; in assay [3] (first compound 6.325 µM), 0.274.
For NCI-H2009, the relative viability is 1.1 in the assay with AZD6482 + Lapatinib (first compound 0.08 µM); 1 with AZD6482 + Lapatinib (first compound 0.253 µM); 1.04 in the assay with AZD6482 + Lapatinib (first compound 0.8 µM); 0.579 in the assay with AZD6482 + Lapatinib (first compound 2.53 µM); 0.815 with AZD6482 + Lapatinib (first compound 8 µM); 1.24 in assay [1] (first compound 0.2 µM). The relative viability worked out at 1.16 in assay [1] (first compound 0.6325 µM); 1.24 in assay [1] (first compound 2 µM); 1.24 in assay [1] (first compound 6.325 µM); 1 in assay [2] (first compound 0.2 µM); 0.972 in assay [2] (first compound 0.6325 µM); 1.03 in assay [2] (first compound 2 µM). The relative viability in assay [2] (first compound 6.325 µM) was determined as 0.943; in assay [3] (first compound 0.2 µM), 0.308; in assay [3] (first compound 0.6325 µM), 0.324; in assay [3] (first compound 2 µM), 0.493; in assay [3] (first compound 6.325 µM), 0.296.
With HCC-15, the relative viability turned out to be 0.873 with AZD6482 + Lapatinib (first compound 0.08 µM); 0.792 with AZD6482 + Lapatinib (first compound 0.253 µM); 0.882 with AZD6482 + Lapatinib (first compound 0.8 µM); 0.737 with AZD6482 + Lapatinib (first compound 2.53 µM); 0.914 with AZD6482 + Lapatinib (first compound 8 µM); 0.895 in assay [1] (first compound 0.2 µM). Besides, the relative viability was determined as 0.903 in assay [1] (first compound 0.6325 µM); 0.95 in assay [1] (first compound 2 µM); 0.734 in assay [1] (first compound 6.325 µM); 0.216 in assay [2] (first compound 0.2 µM); 0.225 in assay [2] (first compound 0.6325 µM); 0.214 in assay [2] (first compound 2 µM). Moreover, the relative viability in assay [2] (first compound 6.325 µM) is 0.208; in assay [3] (first compound 0.2 µM) it was 0.632; in assay [3] (first compound 0.6325 µM), 0.706; in assay [3] (first compound 2 µM), 0.654; in assay [3] (first compound 6.325 µM) it was 0.44.
For COR-L23, the relative viability stood at 0.938 with AZD6482 + Lapatinib (first compound 0.08 µM); 0.948 in the assay with AZD6482 + Lapatinib (first compound 0.253 µM); 1.15 with AZD6482 + Lapatinib (first compound 0.8 µM); 0.734 with AZD6482 + Lapatinib (first compound 2.53 µM); 0.893 in the assay with AZD6482 + Lapatinib (first compound 8 µM); 0.966 in assay [1] (first compound 0.2 µM). Moreover, the relative viability amounted to 1.02 in assay [1] (first compound 0.6325 µM); 1.05 in assay [1] (first compound 2 µM); 1 in assay [1] (first compound 6.325 µM); 0.205 in assay [2] (first compound 0.2 µM); 0.21 in assay [2] (first compound 0.6325 µM); 0.208 in assay [2] (first compound 2 µM). The relative viability in assay [2] (first compound 6.325 µM) amounted to 0.199; in assay [3] (first compound 0.2 µM), 0.57; in assay [3] (first compound 0.6325 µM), 0.476; in assay [3] (first compound 2 µM), 0.559; in assay [3] (first compound 6.325 µM), 0.519.
Take HCC-78: the relative viability was 0.512 in the assay with AZD6482 + Lapatinib (first compound 0.08 µM); 0.683 with AZD6482 + Lapatinib (first compound 0.253 µM); 1.52 in the assay with AZD6482 + Lapatinib (first compound 0.8 µM); 0.255 with AZD6482 + Lapatinib (first compound 2.53 µM); 0.503 with AZD6482 + Lapatinib (first compound 8 µM); 0.427 in assay [1] (first compound 0.2 µM). In addition, the relative viability in assay [1] (first compound 0.6325 µM) was found to be 0.416; in assay [1] (first compound 2 µM) it was 0.482; in assay [1] (first compound 6.325 µM), 0.348; in assay [2] (first compound 0.2 µM), 0.912; in assay [2] (first compound 0.6325 µM), 0.899; in assay [2] (first compound 2 µM) it was 0.918. The relative viability in assay [2] (first compound 6.325 µM) was 1.01; in assay [3] (first compound 0.2 µM), 0.486; in assay [3] (first compound 0.6325 µM) it was 0.557; in assay [3] (first compound 2 µM), 0.362; in assay [3] (first compound 6.325 µM), 0.421.
